Reference: patent US20030003396A1, “Optical data carrier comprising a merocyanine dye as light-absorbent compound in the information layer” (priority 2001, published 2003)
Marks after values point to notes of the source that are not given here.

Assay: UV absorption spectra measured in solution
Assay type: physicochemical
From the text: In the case of a write-once optical data carrier according to the invention which is written on and read by means of the light of a blue laser, preference is given to merocyanine dyes whose absorption maximum λmax1 is in the range from 340 to 410 nm, […] half of the […] one tenth of the absorbance value at λmax1 are preferably not more than 50 nm apart. Such a merocyanine dye preferably has no longer-wavelength maximum λmax2 up to a wavelength of 500 nm, particularly preferably up to 550 nm, very particularly preferably up to 600 nm.
The absorption spectra are measured, for example, in solution.
Suitable merocyanines having the required spectral properties are, in particular, those in which the dipole moment change Δμ=|μg−μag|, i.e. the positive difference between the dipole moments in the ground state and in the first excited state, is very small, preferably <5 D, particularly preferably <2 D. A method of determining such a dipole moment change Δμ is described, for example, in F. Würthner et al., Angew. Chem. 1997, 109, 2933, and in the literature cited therein. A low solvent-induced wavelength shift (dioxane/DMF) is likewise a suitable selection criterion. Preference is given to merocyanines whose solvent-induced wavelength shift Δλ=|λDMF−λdioxane|, i.e. the positive difference between the absorption wavelengths in the solvents dimethylformamide and dioxane, is <20 nm, particularly preferably <10 nm, very particularly preferably <5 nm

[1] = Table 2, on the long wavelength flank
[2] = Table 3, on the short wavelength flank

Structure (SMILES)	ε (Table 2) [L/mol/cm]	ε (Table 3) [L/mol/cm]	λmax (Table 3, in dioxane) [nm]	further results
CCCCN1C(=O)C(=CC=C2N(C)c3ccc(C(=O)OC)cc3C2(C)C)C(=O)c2ccccc21 [Example 53]	110332			λmax (Table 2, in dioxane): 500 nm
CCCCN1C(=O)C(=CC=C2Oc3ccccc3N2CC)C(C)=C(C#N)C1=O [Example 55]	109380			λmax (Table 2, in methylene chloride): 490^6) nm; Δλ (Table 2, |λDMF - λdioxane|): 5 nm
CN1C(=CC=C(C#N)c2nc3ccccc3s2)C(C)(C)c2ccccc21 [Example 57]	57230			λmax (Table 2, in dioxane): 462 nm; λ1/2-λ1/10 (Table 2, on the short wavelength flank): 34^3) nm
COC(=O)c1ccc2c(c1)C(C)(C)C(=CC=C(C#N)[n+]1ccccc1)N2C.[O-][Cl+3]([O-])([O-])[O-] [Example 58]	36010			λmax (Table 2, in methanol): 459^5) nm
CCN1CCCC1=CC=C(C#N)[n+]1ccccc1.[O-][Cl+3]([O-])([O-])[O-] [Example 59]	24400			λmax (Table 2, in methanol): 462^5) nm
CCN1CCCC1=CC=C1SC(=S)N(CC)C1=O [Example 60]	75006			λmax (Table 2, in dioxane): 466 nm; λ1/2-λ1/10 [1]: 10^4) nm
CCN1C(=O)C(=CC=C2N(C)c3ccccc3C2(C)C)SC1=S [Example 61]	36610			λmax (Table 2, in methylene chloride): 512^6) nm; λ1/2-λ1/10 [1]: 25^4) nm; Δλ (Table 2, |λmethylene chloride-λmethanol|): 36^7) nm
CCOC(=O)C(C#N)=c1[nH]c(=O)c(=CC=C2N(C)c3ccccc3C2(C)C)c(C)c1C(=O)OCC [Example 64]				λmax (Table 2, in methanol): 577^5) nm
CCOC(=O)C(C#N)=c1[nH]c(=O)c(=CC=C2N(C)c3ccc(C(=O)OC)cc3C2(C)C)c(C)c1C(=O)OCC [Example 65]	142900			λmax (Table 2, in methanol): 587^5) nm
Cc1c(C#N)c(=C(C#N)C#N)[nH]c(=O)c1=CC=C1N(C)c2ccccc2C1(C)C [Example 66]				λmax (Table 2, in methanol): 546^5) nm
COC(=O)c1ccc2c(c1)C(C)(C)C(=CC=c1c(C)c(C#N)c(=C(C#N)C#N)[nH]c1=O)N2C [Example 67]	50900			λmax (Table 2, in methanol): 554^5) nm
CCCN1C(=O)C(=CC=CN(C)C)C(C)=C(C#N)C1=O [Example 68]		77180	462	λ1/2-λ1/10 [2]: 28^3) nm; Δλ (Table 3, |λDMF-λdioxane|): 8 nm
CCCCN1C(=O)C(=CC=CN(C)C)C(C(F)(F)F)=C(C#N)C1=O [Example 71]		89100		λmax (Table 3, in DMF): 564^6) nm
CCCCN1C(=O)C(=CC=CN(C)c2ccccc2)C(C)=C(C#N)C1=O [Example 72]		79685	480	Δλ (Table 3, |λDMF-λdioxane|): 1.3 nm
CN(C=CC=C1C(=O)c2ccccc2C1=O)c1ccccc1 [Example 73]		84070	447	
CCCN1C(=O)C(=CC=CN(C)c2ccc(OC)cc2)C(C)=C(C#N)C1=O [Example 74]		73010	482	Δλ (Table 3, |λDMF-λdioxane|): 4.3 nm
COc1ccc(N(C)C=CC=C2C(=O)NC(=O)C([n+]3ccccc3)=C2C)cc1.[O-][Cl+3]([O-])([O-])[O-] [Example 75]		62780		λmax (Table 3, in methanol): 469^5) nm
C=C(C)C(=O)OCCN1C(=O)C(=CC=CN2CCOCC2)C(C)=C(C#N)C1=O [Example 76]		89800	458	λ1/2-λ1/10 [2]: 28^3) nm
COC(=O)C(=CC=CN1CCOCC1)C(=O)OC [Example 78]			366	
COC(=O)C(C#N)=CC=CN1CCOCC1 [Example 79]		62900	382	
CCN1C(=O)C(=CC=CC=CN(C)c2ccccc2)C(C)=C(C#N)C1=O [Example 80]		119800	585	λ1/2-λ1/10 (Table 3, on the long wavelength flank): 28^4) nm
CCCN1C(=O)C(=CC(C)=CN(C)C)C(C)=C(C#N)C1=O [Example 83]			337	
CCN1C(=O)C(=CC=CC=CN(C)C)C(C)=C(C#N)C1=O [Example 84]		149800		λmax (Table 3, in DMF): 552^6) nm
CCOC(=O)C(C#N)=c1[nH]c(=O)c(=CC=CN(C)C)c(C)c1C(=O)OCC [Example 85]				λmax (Table 3, in methanol): 509^5) nm
